These results are taken from patent US20040248964A1, “Analgesic uses of norketamine and ketamine/norketamine prodrugs” (priority 2002, published 2004).

For orientation: melting point means the temperature of the solid-liquid transition.

One data set deals with rats. Conditions: intravenously or intraspinally; cited from earlier work.
The test system of the next data set is NMDA receptor. To be noted: cited from earlier work.
Data set [1] in a line: Nasal spray self-administration of norketamine in the same patient.
The conditions of data set [2]: cited from earlier work.
Data set [3] can be described thus: Norketamine i.v. drip in a patient with intractable bladder pain, pain level subjectively evaluated by the patient. The data set is classed as in vivo, human. The method, then:
A patient, weighing approximately 60 kg, presents with intractable bladder pain (interstitial ceptitis), which has been diagnosed previously. Pain management in this patient consists of 100 mg Demoral every 3 hours; Dilaudid 2-4 mg every 4 hours; Dalmane 30 mg per day; Duralgesic patches (fentanyl transdermal patches); bladder washes with Pyridium (phenaropyridine HCl), which is a urinary tract analgesic; and belladonna and opiate suppositories. In addition to the pain medication, the patient takes Zanax and Tagamet to alleviate gastric distress, and Compazine (an anti-emetic) to counteract nausea. Gastric distress and nausea in this patient result from the pain medication.
Despite the dosages and range of pain medications used by this patient, satisfactory pain management is not achieved.
A diagnostic pre-sacral, or ilio-hypogastric, nerve block is performed on this patient to alleviate the pain. Unfortunately, the effect of the block is temporary, and the block is associated with significant motor weakness. After the block wears off, the patient states that they are unable to function, as the most mundane activities are exhausting.
Norketamine (10 mg/cc) drip was administered i.v. over one hour, for a total dose of 40 mg norketamine. […] About 1 hour after norketamine infusion is discontinued, the patient reports that the level of pain has increased to about #15, and thereafter rapidly to its previous level. The patient continues to take the other pain medications without effect.

In turn, `CCOC(=O)NC1(c2ccccc2Cl)CCCCC1=O` (stereo not drawn) gave a melting point of 112 to 114 °C.
Regarding `CC(C)OC(=O)NC1(c2ccccc2Cl)CCCCC1=O` (stereo not drawn), the melting point is 124 to 126 °C.
`CCCCOC(=O)NC1(c2ccccc2Cl)CCCCC1=O` (stereo not drawn) returned a melting point of 130 to 132 °C.
`NC1(c2ccccc2Cl)CCCCC1=O` (stereo not drawn) [Norketamine, 2-(2-chlorophenyl)-2-amino-cyclohexanone]: the “adverse sequelae compared with an equal dose of ketamine” value in the data set with rats was “fewer of the adverse sequelae”. Also, in the data set with NMDA receptor, the “binding to the NMDA receptor compared with S- or R-ketamine” value is “less tightly”. For the same compound, the “control of breakthrough pain” value in data set [1] (nasal administration) is given as “particularly effective”. Moreover, the “pain management with nasal administration” value in data set [1] (nasal spray 100 mg/ml, 16 mg per spray, 1-2 sprays for severe pain) is “remarkable pain management”. For the same compound, in data set [2] (speculated), the “anesthetic and analgesic potency relative to ketamine” value was “one third”. For the same compound, the “reduction of the pain level by a factor” value in data set [3] (10 mg/cc drip i.v. over one hour, total dose 40 mg, from #20, subjectively evaluated by the patient) is reported as 2. Also, the “pain level about 1 hour after norketamine infusion is discontinued” value in data set [3] (thereafter rapidly to its previous level) was about 15. Further, in data set [3] (total dose 40 mg i.v. over one hour, level before #20), the “pain level after norketamine infusion” value is reported as 10-12.
Regarding `CN[C@]1(c2ccccc2Cl)CCCCC1=O` [S-ketamine, reference compound], the “potency relative to R-ketamine” value in data set [2] (in vivo) is “twice as potent”.
